These results are taken from patent US20030119800A1, “Bone anabolic compounds and methods of use” (priority 2001, published 2003).

Assay [1] concerns ER (lamb uterus cytosol, human ERα, human ERβ). Nature of the assay: Relative binding affinity by competition with 3H E2 (FIG. 10). How it is done: The proteins were absorbed to hydroxylapatite (HAP) and the free ligand removed by washing (Carlson et al, 1997). Results are expressed as percent specific binding. […] Symbols indicate means±SD of two separate experiments in which each point was determined in duplicate.
Statistical analysis: ANOVA was used to detect treatment effects. Specifically, in FIGS. 1-6 & 8, Dunnett's test (Kuehl et al, 2000) was used to detect differences between various treatments as compared to the vehicle control group. To detect differences in the efficacy of the various compounds shown in FIGS. 7A & B, the dose response curves were compared using tests for linear trend (Kuehl, 2002). Bonferroni's method was used to perform all pairwise comparisons of treatment groups in FIGS. 7E & F, FIGS. 11A, B, C, FIG. 12A, FIG. 13, FIGS. 14A and B and FIG. 9. Because the normality assumption was not satisfied for the data in FIGS. 3C & D and FIG. 12C, Wilcoxon's rank sum test (Steel et al, 1997) was used to perform all pairwise comparisons of treatment groups using a Bonferroni correction. In FIG. 14D, a two-way ANOVA was used to detect treatment and dose effects and tests for linear trend were subsequently employed to determine significant effects of each compound. In FIG. 10, logistic regression was used to estimate EC50, which was then used to determine the relative binding affinity. […]

The next assay deals with MCF-7 cells. Nature of the assay: MCF-7 cell proliferation assay (3H-thymidine uptake). Type of assay: cell-based. The note with it: 10^−12-10^−7 M for 48 h. The text has this:
Wet uterine (A) or seminal vesicle weight (B) of female and male mice described in FIG. 11. […] Note the following morphologic differences in the uteri of OVX- and OVX+4-estren-3α,17β-diol-treated mice as compared to uteri from sham-operated and OVX+E2-treated mice: thin and atrophic columnar epithelium; compact stroma; decreased number of glands; decreased nucleus to cytoplasmic ratio in the columnar epithelial, endometrial stroma, and myometrial cells; and absence of mitotic activity. (D) Proliferation of MCF-7 cells was determined by ^3H-thymidine uptake.
MCF-7 cell proliferation assay: MCF-7 cells were serum-starved in the presence of 10^−8 M ICI 182,780 for 96 h, after which the ICI-containing medium was replaced with medium-containing vehicle or 10^−12-10^−7 M of the indicated steroids for an additional 48 h. At that time, proliferation was assayed by measuring ^3H-Thymidine uptake as previously described (Bellido et al, 1997).

For another assay, the target named is T1, ERα (Homo sapiens, UniProt P03372).
T1 construct: HeLa cells transfected with the full length ERα; expressed in transfected cells; host or cells: HeLa
T1 sequence (P03372 whole entry): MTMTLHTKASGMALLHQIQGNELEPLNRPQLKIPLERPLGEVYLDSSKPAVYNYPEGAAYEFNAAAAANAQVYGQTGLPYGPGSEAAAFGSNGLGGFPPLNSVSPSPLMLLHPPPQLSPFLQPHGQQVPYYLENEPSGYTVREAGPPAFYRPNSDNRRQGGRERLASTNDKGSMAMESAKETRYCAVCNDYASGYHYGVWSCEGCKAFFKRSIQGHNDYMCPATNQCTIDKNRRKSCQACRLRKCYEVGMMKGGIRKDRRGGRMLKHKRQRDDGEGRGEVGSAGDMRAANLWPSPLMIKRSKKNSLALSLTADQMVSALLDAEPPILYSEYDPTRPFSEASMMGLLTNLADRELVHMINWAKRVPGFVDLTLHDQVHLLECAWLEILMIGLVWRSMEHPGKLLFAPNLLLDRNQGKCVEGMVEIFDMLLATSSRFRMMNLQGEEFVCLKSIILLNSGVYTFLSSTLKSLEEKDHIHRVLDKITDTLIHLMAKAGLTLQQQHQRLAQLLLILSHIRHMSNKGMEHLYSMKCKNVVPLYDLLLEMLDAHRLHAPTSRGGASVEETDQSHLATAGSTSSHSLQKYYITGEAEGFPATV
Nature of the assay: SRE-SEAP and AP-1-SEAP reporter assays in HeLa cells transfected with ERα. Type of assay: cell-based. The conditions noted are these: steroids 10^−8 M for 15 minutes (E2 as little as five minutes), SEAP six hours later. The protocol:
HeLa cells were co-transfected with reporter constructs in which SRE or AP-1 drive the expression of secreted alkaline phosphatase (SEAP), along with the wild type ERα (A and B); or its ligand binding domain (E), or E fused to a membrane (E-Mem) or nuclear (E-Nuc) localization sequence (A). A dominant negaitve (dn) MEK or dn Jnk were also introduced into a subset of the ERα transfected cells. Cells were exposed to vehicle or the indicated steroids (10^−8M) for 15 minutes. The steroid containing media were then removed, the cells were washed twice, and the cultures were continued in fresh medium without steroids. Supernatants were collected six hours later and SEAP activity was assayed. In FIGS. 1A and 1B, 100% indicates activity in vehicle treated cells. (C) HeLa cells were co-transfected with the ERα and nEGFP and wild type or dn mutants of the indicated transcription factors. […] (D) HeLa cells (upper panel) were transiently co-transfected with the ERα, a nonphosphorylatable dn mutant of Bad. […] Cells were then treated as in (C).
Transient transfections and reporter assays: HeLa cells were transfected using Lipofectamine Plus (Life Technologies Inc.). For reporter assays (luciferase or secreated alkaline phosphatase SEAP), serum-starved cells were treated with the indicated steroids for 15 min after which the steroid-containing media were removed, cells washed twice with 1% BSA in PBS, and fresh media without steroid were added. SEAP or luciferase assays were performed 6 h later using the Great EscAPe SEAP Chemiluminescence Kit (Clontech, Palo Alto, Calif.) or the dual luciferase Kit (Promega, Madison, Wis.), respectively, according to the manufacturer's instructions. Both reporter activities were normalized to renilla luciferase activity.

Consider `C[C@]12CC[C@H]3[C@@H](CCC4=C[C@H](O)CC[C@@H]43)[C@@H]1CC[C@@H]2O` [4-estren-3α,17β-diol], for which, in assay [1], the “binding affinity for the ER compared to E2” value is given as “lower binding affinity”. Also, in the assay on MCF-7 cells, the MCF-7 cell proliferation result is “did not stimulate”. At ERα, the “AP-1-dependent transcriptional activity (AP-1-SEAP)” value was “downregulation of AP-1” and the “SRE-dependent transcriptional activity (SRE-SEAP)” value is “Stimulation of SRE”.
